Reference: PMC6508865, “Dynamics of thymol dietary supplementation in quail (Coturnix japonica): Linking bioavailability, effects on egg yolk total fatty acids and performance traits” (PLoS ONE, 2019)
Where two headings read alike, the source gives them in different places.

Experiments:
[1] = Thymol quantification in egg yolk (HS-SPME/GC-MS) during chronic dietary supplementation; format: in vivo, Coturnix japonica; settings: for concentration at 2 days of supplementation / concentration at 9 days of supplementation / concentration at 16 days of supplementation / concentration at 26 days of supplementation / concentration at 17 days after supplement withdrawal: female, Japanese quail (Coturnix japonica), egg yolk, oral, read-out: THY concentration in egg yolk
From the text: (§1) A total of 50 eighty-five days-old female quail of homogeneous body weights (251 ± 1 g; Mean ± SE) and in their egg-laying peak were selected from an initial group of 96 female individuals. All birds continued receiving a basal diet between 85 and 100 days of age and all variables (see below for details) were registered along this period (Pre-supplementation period, Fig 1). From 100 to 128 days of age (S period, Fig 1), females were randomly assigned to either a chronic dietary supplementation with one of 3 THY doses (THY2, THY4 and THY6; 10 females each) or to one of 2 control groups (basal diet, BASAL, and basal diet with vehicle solution, VEHICLE; 10 females each). Once finished the S period, half of the quail were slaughtered for histological analysis (n = 25; Slaughter 1, Fig 1) and the other half were subjected to a pS period of 21 days, during which all females received the BASAL diet (pS, Fig 1). After this period, the remaining 25 animals were also slaughtered for histological analysis (Slaughter 2, Fig 1). In this way, we assessed whether THY induced changes in variables indicative of tissue damage and if so, whether the potential damages could reverse after 3 weeks of supplement withdrawal.
(§2) To assess changes in egg yolk total FA composition, egg physical characteristics, laying rate, body weight, feed intake and general welfare, during the S and pS periods, five sampling points were defined (Sample points, Fig 1): one initial sample point (at 0 days of S); three sample points during the S period (at 7, 14 and 28 days of S); and one sample point at the end of the pS period (21 days of pS). It should be noted that for determinations of THY concentration, eggs and quail droppings were collected offset from the other variables measured by 2 days, thus were collected on days 2, 9, 16, and 26 days of S, and 17 days of pS, respectively.
(§3) Thymol was commercially obtained from Sigma-Aldrich (SAFC®, ⩾99%; FCC, Saint Louis, MO, USA). Supplemented quail were provided 2, 4 or 6.25 g of THY per kg of feed. For this end, THY was prepared in a 2.4, 4.8 and 7.5% w/v ethanolic solution and uniformly sprayed on fresh feed. The feed was prepared and administrated daily, to minimize THY volatilization from feed before its consumption by females. The doses were selected considering two factors. The first, the concentration range for which the transfer of THY to the chicken and/or quail egg has been established. Second, the concentrations of THY supplementation that have shown biological effects. […] In this context, THY4 is and intermediate dose between the last two. Nutrient and FA compositions of the diets supplied were identical between each other and are reported in S1, S2 and S3 Tables, and are in accordance with the National Research Council recommendation.
(§4) Egg yolks and droppings of each female were obtained at each sample point (Sample points, Fig 1) and THY concentration was immediately measured by head space-solid phase microextraction followed by gas chromatography-mass spectrometry (HS-SPME/GC-MS) according to Fernandez et al.. SPME was performed with a manual holder with 100 um polydimethylsiloxane (PDMS) fiber. An aliquot of egg yolk (3 g), droppings (5 g) or feed (5 g) was put in a sealed 20 mL glass vial, spiked at the corresponding level with the standard m-cresol (Sigma-Aldrich; ≥ 99% (GC); Saint Louis, MO, USA) stock solution, and vortexed for 5 min. The vials were placed in a water bath and the PDMS fiber was exposed to the headspace for 30 min at 60°C and 5 min at 40°C for egg yolk and droppings or feed, respectively. The fiber was then inserted directly into the GC injector for desorption at 250°C for 10 min in splitless mode. Chromatography analysis was carried out in a Perkin Elmer Clarus 600 equipped with a PSSI injector and a quadrupole MS detector (Perkin Elmer, USA). Turbo Mass 5.4.2 software was used to control and acquire data from GC–MS. […]

[2] = design: method as in ref 14 = [14]; 14 Botsoglou N , Yannakopoulos AL , Fletouris DJ , Tserveni-Goussi AS , Fortomaris PD . Effect of dietary thyme on oxidative stability of egg yolk . J Agric Food Chem . 1997; 45 ( 10 ): 3711 – 6 .; settings: cited from earlier work
[3] = Thymol quantification in quail droppings (HS-SPME/GC-MS) during chronic dietary supplementation; format: in vivo, Coturnix japonica; settings: for concentration at 2 days / concentration at 9 days / concentration at 16 days / concentration at 26 days: female, Japanese quail (Coturnix japonica), droppings, oral, read-out: THY concentration in droppings
From the text: as §1, §2, §3, §4

[4] = THY2, 2 g of thymol/kg of feed, 2 days of S
[5] = THY2, 2 g of thymol/kg of feed, 9 days of S
[6] = THY2, 2 g of thymol/kg of feed, 16 days of S
[7] = THY2, 2 g of thymol/kg of feed, 26 days of S
[8] = THY2, 2 g of thymol/kg of feed, pS, 17 days of supplement withdrawal
[9] = THY4, 4 g of thymol/kg of feed, 2 days of S
[10] = THY4, 4 g of thymol/kg of feed, 9 days of S
[11] = THY4, 4 g of thymol/kg of feed, 16 days of S
[12] = THY4, 4 g of thymol/kg of feed, 26 days of S
[13] = THY4, 4 g of thymol/kg of feed, pS, 17 days of supplement withdrawal
[14] = THY6, 6.25 g of thymol/kg of feed, 2 days of S
[15] = THY6, 6.25 g of thymol/kg of feed, 9 days of S
[16] = THY6, 6.25 g of thymol/kg of feed, 16 days of S
[17] = THY6, 6.25 g of thymol/kg of feed, 26 days of S
[18] = THY6, 6.25 g of thymol/kg of feed, pS, 17 days of supplement withdrawal
[19] = during the plateau, across THY2, THY4, THY6
[20] = 2 g/kg of feed, THY2, 2 g of thymol/kg of feed, 2 days of S
[21] = 2 g/kg of feed, THY2, 2 g of thymol/kg of feed, 9 days of S
[22] = 2 g/kg of feed, THY2, 2 g of thymol/kg of feed, 16 days of S
[23] = 2 g/kg of feed, THY2, 2 g of thymol/kg of feed, 26 days of S
[24] = 4 g/kg of feed, THY4, 4 g of thymol/kg of feed, 2 days of S
[25] = 4 g/kg of feed, THY4, 4 g of thymol/kg of feed, 9 days of S
[26] = 4 g/kg of feed, THY4, 4 g of thymol/kg of feed, 16 days of S
[27] = 4 g/kg of feed, THY4, 4 g of thymol/kg of feed, 26 days of S
[28] = 6.25 g/kg of feed, THY6, 6.25 g of thymol/kg of feed, 2 days of S
[29] = 6.25 g/kg of feed, THY6, 6.25 g of thymol/kg of feed, 9 days of S
[30] = 6.25 g/kg of feed, THY6, 6.25 g of thymol/kg of feed, 16 days of S
[31] = 6.25 g/kg of feed, THY6, 6.25 g of thymol/kg of feed, 26 days of S

Percentage of THY transferred to egg yolk in relation to the amount ingested [1, 4]: 0.02% | Percentage of THY transferred to egg yolk in relation to the amount ingested [1, 5]: 0.23% | Percentage of THY transferred to egg yolk in relation to the amount ingested [1, 6]: 0.22% | Percentage of THY transferred to egg yolk in relation to the amount ingested [1, 7]: 0.25% | Percentage of THY transferred to egg yolk in relation to the amount ingested [1, 8]: 0.03% | Percentage of THY transferred to egg yolk in relation to the amount ingested [1, 9]: 0.01% | Percentage of THY transferred to egg yolk in relation to the amount ingested [1, 10]: 0.17% | Percentage of THY transferred to egg yolk in relation to the amount ingested [1, 11]: 0.17% | Percentage of THY transferred to egg yolk in relation to the amount ingested [1, 12]: 0.16% | Percentage of THY transferred to egg yolk in relation to the amount ingested [1, 13]: 0.02% | Percentage of THY transferred to egg yolk in relation to the amount ingested [1, 14]: 0.02% | Percentage of THY transferred to egg yolk in relation to the amount ingested [1, 15]: 0.14% | Percentage of THY transferred to egg yolk in relation to the amount ingested [1, 16]: 0.13% | Percentage of THY transferred to egg yolk in relation to the amount ingested [1, 17]: 0.13% | Percentage of THY transferred to egg yolk in relation to the amount ingested [1, 18]: 0.03% | THY transferred to the egg yolk, of the amount THY ingested [1, 19]: 0.13–0.25% | highest concentration of THY detected in egg yolk, molar equivalent ([1]; equivalent of 406 ng/g of egg yolk): ~ 3.05 uM | concentration at 2 days of supplementation [1, 20]: 12.5 ng/g | concentration at 9 days of supplementation [1, 21]: 156 ng/g | concentration at 16 days of supplementation [1, 22]: 150 ng/g | concentration at 26 days of supplementation [1, 23]: 169 ng/g | concentration at 17 days after supplement withdrawal ([1]; 2 g/kg of feed, THY2, 2 g of thymol/kg of feed, pS, 17 days of supplement withdrawal): 17.9 ng/g | concentration at 2 days of supplementation [1, 24]: 26.1 ng/g | concentration at 9 days of supplementation [1, 25]: 297 ng/g | concentration at 16 days of supplementation [1, 26]: 295 ng/g | concentration at 26 days of supplementation [1, 27]: 282 ng/g | concentration at 17 days after supplement withdrawal ([1]; 4 g/kg of feed, THY4, 4 g of thymol/kg of feed, pS, 17 days of supplement withdrawal): 36.3 ng/g | concentration at 2 days of supplementation [1, 28]: 42.9 ng/g | concentration at 9 days of supplementation [1, 29]: 407 ng/g | concentration at 16 days of supplementation [1, 30]: 372 ng/g | concentration at 26 days of supplementation [1, 31]: 377 ng/g | concentration at 17 days after supplement withdrawal ([1]; 6.25 g/kg of feed, THY6, 6.25 g of thymol/kg of feed, pS, 17 days of supplement withdrawal): 69.5 ng/g | highest concentration of THY detected in egg yolk ([1]; highest of the study): ~406 ng/g of egg yolk | Percentage of THY transferred to droppings in relation to the amount ingested [3, 4]: 0.53% | Percentage of THY transferred to droppings in relation to the amount ingested [3, 5]: 2.33% | Percentage of THY transferred to droppings in relation to the amount ingested [3, 6]: 2.41% | Percentage of THY transferred to droppings in relation to the amount ingested [3, 7]: 3.47% | Percentage of THY transferred to droppings in relation to the amount ingested [3, 8]: 0.04% | THY concentration in droppings [3, 8]: 4.37 ng/g | Percentage of THY transferred to droppings in relation to the amount ingested [3, 9]: 0.25% | Percentage of THY transferred to droppings in relation to the amount ingested [3, 10]: 1.78% | Percentage of THY transferred to droppings in relation to the amount ingested [3, 11]: 1.91% | Percentage of THY transferred to droppings in relation to the amount ingested [3, 12]: 2.11% | Percentage of THY transferred to droppings in relation to the amount ingested [3, 13]: 0.12% | THY concentration in droppings [3, 13]: 30.58 ng/g | Percentage of THY transferred to droppings in relation to the amount ingested [3, 14]: 0.21% | Percentage of THY transferred to droppings in relation to the amount ingested [3, 15]: 1.33% | Percentage of THY transferred to droppings in relation to the amount ingested [3, 16]: 1.74% | Percentage of THY transferred to droppings in relation to the amount ingested [3, 17]: 1.57% | Percentage of THY transferred to droppings in relation to the amount ingested [3, 18]: 0.09% | THY concentration in droppings [3, 18]: 37.95 ng/g | THY transferred to the droppings, of the amount THY ingested [3, 19]: 1.57–3.47% | concentration at 2 days [3, 20]: 51.8 ng/g | concentration at 9 days [3, 21]: 229 ng/g | concentration at 16 days [3, 22]: 237 ng/g | concentration at 26 days [3, 23]: 342 ng/g | concentration at 2 days [3, 24]: 63.5 ng/g | concentration at 9 days [3, 25]: 459 ng/g | concentration at 16 days [3, 26]: 491 ng/g | concentration at 26 days [3, 27]: 542 ng/g | concentration at 2 days [3, 28]: 85 ng/g | concentration at 9 days [3, 29]: 550 ng/g | concentration at 16 days [3, 30]: 721 ng/g | concentration at 26 days [3, 31]: 650 ng/g
Compound: Cc1ccc(C(C)C)c(O)c1 [THY, 2 isopropyl-5-methylphenol]
concentration of THY needed to be added to a control yolk for antioxidant activity equivalent to a yolk from a thyme treated hen [2]: 278 ug of THY/g of yolk
